Legend:
[1] = Chronic (seven days) intravenous toxicity study; format: in vivo, Sprauge-Dawley rats; conditions: 10080 min
Procedure: To determine the toxicity of chronic cytochalasin B administration, cytochalasin B was administered intravenously to Sprauge-Dawley rats for seven days (Table 12). Data regarding food consumption, body weights, hematology parameters, clinical chemistry parameters, coagulation profiles, organ weights, clinical observations, gross necropsy findings and histopathology were collected. […]

[2] = mouse, in vivo

C=C1[C@@H](C)[C@H]2[C@H](Cc3ccccc3)NC(=O)[C@]23OC(=O)/C=C/[C@H](O)CCC[C@@H](C)C/C=C/[C@H]3[C@@H]1O [cytochalasin B]
dose without any indication of adverse effects or toxicity [1]: up to 600 µg/kg/day | levels in tissues [2]: very low levels | maximal recovery from tissue extracts ([2]; iv, 3.5 mg/kg): 32%

Source: EP2292225A1 (priority 1997, dated 1998)
